From patent publication US7973012B2, “C-phenyl glycitol compound” (Taisho Pharmaceutical Co., Ltd, priority 2006, dated 2011) come the findings set out here.

One experiment addresses T1, human SGLT2 (Homo sapiens, UniProt P31639).
T1 construct: expressed in transfected cells; host or cells: CHO-k1
T1 sequence (P31639 1-672): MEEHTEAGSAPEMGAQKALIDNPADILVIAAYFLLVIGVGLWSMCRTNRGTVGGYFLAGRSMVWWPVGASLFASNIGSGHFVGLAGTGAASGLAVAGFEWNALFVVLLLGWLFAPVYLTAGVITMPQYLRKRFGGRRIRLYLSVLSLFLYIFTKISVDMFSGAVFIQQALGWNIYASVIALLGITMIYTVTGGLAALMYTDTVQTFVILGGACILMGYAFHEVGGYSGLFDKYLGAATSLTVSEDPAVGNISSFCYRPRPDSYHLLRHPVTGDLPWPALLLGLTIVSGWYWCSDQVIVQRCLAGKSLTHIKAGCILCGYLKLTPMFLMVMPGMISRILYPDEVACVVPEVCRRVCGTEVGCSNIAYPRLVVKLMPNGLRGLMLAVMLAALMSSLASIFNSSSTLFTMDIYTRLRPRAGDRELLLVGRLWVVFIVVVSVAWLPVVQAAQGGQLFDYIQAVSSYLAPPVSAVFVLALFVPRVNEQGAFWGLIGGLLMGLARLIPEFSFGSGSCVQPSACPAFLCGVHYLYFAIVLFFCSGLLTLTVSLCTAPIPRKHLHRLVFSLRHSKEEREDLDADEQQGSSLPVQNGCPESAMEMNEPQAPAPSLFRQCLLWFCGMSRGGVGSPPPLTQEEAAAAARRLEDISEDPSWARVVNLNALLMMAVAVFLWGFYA
The experiment is described as follows: Inhibition test of sodium-dependent sugar uptake in CHO-k1 cells stably expressing human SGLT2. The experiment is classed as cell-based. The conditions noted are these: for IC50: CHO-k1 cells expressing human SGLT2, [14C]methyl α-D-glucopyranoside uptake, 37° C., an hour. How it is done: (§1) An SGLT1 sequence (NM_000343) was reverse-transcripted from human small intestinal mRNA, then amplified, and then introduced into pCMV-tag5A from Stratagene Corporation. An SGLT2 sequence (NM_003041) was prepared from human nephric mRNA as with the above method, and then introduced into pcDNA3.1+hygro from Invitrogen Corporation. Each cloned sequence was confirmed to be identical with the reported sequence.
(§2) The human SGLT1 and human SGLT2 expression vectors were transfected into CHO-k1 cells by using Lipofectamine 2000 from Invitrogen Corporation. The SGLT expression cells were incubated in the presence of Geneticin (SGLT1) or Hygromycin B (SGLT2) at a 500 μg/mL concentration to select resistant strains, and specific activity of sugar uptake was obtained as an indicator by the following system.
(§3) Cells stably expressing human SGLT1 and human SGLT2 were used for the inhibition test of sodium-dependent glucose uptake.
(§4) The cells were incubated in a pretreatment buffer A (200 μL for SGLT1, and 2 mL for SGLT2) for 20 minutes. The pretreatment buffer was removed and an uptake buffer B (75 μL for SGLT1, and 200 μL for SGLT2) containing a test compound was added to conduct an uptake reaction at 37° C. for 30 minutes (SGLT1) or an hour (SGLT2). After the reaction, the cells were washed with a washing buffer C twice (200 μL for SGLT1, and 2 mL for SGLT2), and then dissolved in a 0.2 M solution of NaOH (75 μL for SGLT1, and 400 μL for SGLT2). After a liquid scintilater was added thereto and mixed sufficiently, radioactivity was measured with microBETA (SGLT1) or a liquid scintillation counter from Beckman Coulter, Inc (SGLT2). As a control group, an uptake buffer containing no test compound was prepared. In addition, as the basic uptake buffer, an uptake buffer B containing choline chloride instead of NaCl was prepared. • A pretreatment buffer A: 140 mM choline chloride, 2 mM KCl, 1 mM CaCl2, 1 mM MgCl2, 10 mM HEPES/5 mM Tris, pH 7.4. • An uptake buffer B: 1 mM of methyl α-D-glucopyranoside containing [^14C]methyl α-D-glucopyranoside, 140 mM NaCl, 2 mM KCl, 1 mM CaCl2, 1 mM MgCl2, 10 mM HEPES/5 mM Tris, pH 7.4. • A washing buffer C: 10 mM methyl α-D-glucopyranoside, 140 mM choline chloride, 2 mM KCl, 1 mM CaCl2, 1 mM MgCl2, 10 mM HEPES/5 mM Tris, pH 7.4.
(§5) In order to obtain IC50 values, test compounds having adequate 6 concentrations were used and the test compound concentrations (IC50 values) at which sugar uptake is inhibited by 50% in comparison with the amount of sugar uptake (100%) of the control group were calculated.
(§6) In addition, the sugar uptake inhibition rates at 100 nM concentration of the test compound in comparison with the control group are shown in Table 7.

The next experiment deals with T2, human SGLT1 (Homo sapiens, UniProt P13866).
T2 construct: expressed in transfected cells; host or cells: CHO-k1
T2 sequence (P13866 1-664): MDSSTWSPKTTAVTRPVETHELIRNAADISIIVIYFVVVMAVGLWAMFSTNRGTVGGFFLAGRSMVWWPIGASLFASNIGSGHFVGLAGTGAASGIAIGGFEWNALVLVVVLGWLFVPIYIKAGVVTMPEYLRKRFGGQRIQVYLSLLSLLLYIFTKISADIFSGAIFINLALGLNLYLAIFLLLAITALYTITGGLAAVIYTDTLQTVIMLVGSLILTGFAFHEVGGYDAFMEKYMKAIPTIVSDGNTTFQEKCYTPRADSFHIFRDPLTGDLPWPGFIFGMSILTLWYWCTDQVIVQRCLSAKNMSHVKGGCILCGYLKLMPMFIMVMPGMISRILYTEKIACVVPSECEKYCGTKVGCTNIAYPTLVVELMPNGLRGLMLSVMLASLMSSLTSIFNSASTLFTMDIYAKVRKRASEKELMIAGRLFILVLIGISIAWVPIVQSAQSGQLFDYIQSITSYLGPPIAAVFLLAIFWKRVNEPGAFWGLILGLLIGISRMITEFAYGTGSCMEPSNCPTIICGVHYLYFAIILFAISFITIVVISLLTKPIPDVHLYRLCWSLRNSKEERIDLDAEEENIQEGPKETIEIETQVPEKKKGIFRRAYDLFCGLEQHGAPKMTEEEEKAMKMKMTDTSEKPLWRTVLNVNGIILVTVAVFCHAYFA
The experiment is described as follows: Inhibition test of sodium-dependent sugar uptake in CHO-k1 cells stably expressing human SGLT1. The experiment is classed as cell-based. To be noted: for IC50: CHO-k1 cells expressing human SGLT1, [14C]methyl α-D-glucopyranoside uptake, 37° C., 30 minutes. As for the experimental part:
as §1, §2, §3, §4, §5, §6

Experiment [1] relates to Streptozotocin diabetic model rats. The experiment is described as follows: Oral glucose tolerance test in streptozotocin diabetic model rats. The experiment is classed as in vivo. The conditions noted are these: Rattus norvegicus; STZ diabetic SD/IGS rats; 1 mg/kg oral, glucose 2 g/kg oral 5 minutes later; decrease rate of ΔAUC 0-1 h vs control group; read-out: STZ rats-OGTT(2 g/kg) % inhibition ΔAUC0-1 h(mgh/dL) @1 mg/kg. How it is done:
7-week-old SD/IGS rats (from CHARLES RIVER LABORATORIES JAPAN, INC., male) were fasted for about 16 hours. Then to these rats under etherization were administered 50 mg/kg of streptozotocin (STZ) via the tail vein to prepare diabetic model rats. Similarly, to rats under etherization were administered 1 mL/kg physiological saline containing 1.25 mmol/L of citric acid via tail veins to prepare normal control rats. One week (8 weeks old) after administration of STZ or 1.25 mmol/L citric acid physiological saline, the rats were subjected to oral glucose tolerance test.
After the rats were fasted for about 16 hours, the medicament (1 mg/kg) suspended in a 0.5% carboxymethyl cellulose (CMC) aqueous solution was orally administered to a medicament treated group, and only a 0.5% aqueous solution of CMC was orally administered to a control group. At 5 minutes after the administration, a glucose solution (2 g/kg) was orally administered to each rat, and blood was collected at 5 points in total: before the administration (0 time), after 0.25, 0.5, 1 and 2 hours after the oral administration.
The blood was collected from the orbital sinus venosus of each rat under etherization with a heparin-coated blood collection tube and centrifuged, and then blood plasma was separated. The concentration of glucose in the blood plasma was determined with Glucose CII Test Wako from Wako Pure Chemical Industries, Ltd. As for the intensity of inhibitory effect on elevation of blood glucose level, area under the blood glucose level curve (AUC) was calculated by the trapezoidal rule based on the blood glucose levels of the medicament treated group from 0 time to 1 hour time. And a basal value is subtracted from AUC to describe the intensity as area under the blood glucose level increment (ΔAUC) and describe the intensity as a decrease rate from the ΔAUC of the control group.

[2] abbreviates: sugar uptake inhibition rate at 100 nM test compound vs control group.

For `Cc1cc(O)c([C@@H]2O[C@H](CO)[C@@H](O)[C@H](O)[C@H]2O)cc1Cc1ccc(CCNC(=O)NC(C)(C)CO)cc1` [Compound 10, (1S)-1,5-anhydro-1-[5-[4-[2-[[(2-hydroxy-1,1-dimethylethyl)aminocarbonyl]amino]ethyl]benzyl]-2-hydroxy-4-methylphenyl]-D-glucitol], the IC50 (usually the concentration that gives 50% inhibition) was found to be 23 nM against human SGLT2 and 51 nM at human SGLT1. Further, in experiment [1], the inhibition in vivo at 1 mg/kg turned out to be 67.8%.
In the same order, the values of `Cc1cc(O)c([C@@H]2O[C@H](CO)[C@@H](O)[C@H](O)[C@H]2O)cc1Cc1ccc(CCCC(=O)NC(CO)(CO)CO)cc1` [Compound 3, (1S)-1,5-anhydro-1-[2-hydroxy-5-[4-[4-[[2-hydroxy-1,1-bis(hydroxymethyl)ethyl]amino]-4-oxobutyl]benzyl]-4-methylphenyl]-D-glucitol] are 65 nM, 35 nM and 63.9%.
On the same counts, the results for `Cc1cc(O)c([C@@H]2O[C@H](CO)[C@@H](O)[C@H](O)[C@H]2O)cc1Cc1ccc(CCCNC(=O)NC(CO)(CO)CO)cc1` [Compound 9, (1S)-1,5-anhydro-1-[5-[4-[3-[[[2-hydroxy-1,1-bis(hydroxymethyl)ethyl]aminocarbonyl]amino]propyl]benzyl]-2-hydroxy-4-methylphenyl]-D-glucitol] are 29 nM, 175 nM and 50.1%.
For the molecule `Cc1cc(O)c([C@@H]2O[C@H](CO)[C@@H](O)[C@H](O)[C@H]2O)cc1Cc1ccc(CCCNC(=O)NC(C)(C)CO)cc1` [Compound 8, (1S)-1,5-anhydro-1-[5-[4-[3-[[(2-hydroxy-1,1-dimethylethyl)aminocarbonyl]amino]propyl]benzyl]-2-hydroxy-4-methylphenyl]-D-glucitol], the half-inhibitory concentration (IC50) against human SGLT2 was found to be 29 nM; on human SGLT1, 65 nM. For the same molecule, the inhibition in vivo at 1 mg/kg in experiment [1] is 45.1%.
In the same order, the values of `Cc1cc(O)c([C@@H]2O[C@H](CO)[C@@H](O)[C@H](O)[C@H]2O)cc1Cc1ccc(CCNC(=O)NC(CO)(CO)CO)cc1` [Compound 11, (1S)-1,5-anhydro-1-[5-[4-[2-[[[2-hydroxy-1,1-bis(hydroxymethyl)ethyl]aminocarbonyl]amino]ethyl]benzyl]-2-hydroxy-4-methylphenyl]-D-glucitol] are 34 nM, 59 nM and 69.3%.
In the same order, the values of `Cc1cc(O)c([C@@H]2O[C@H](CO)[C@@H](O)[C@H](O)[C@H]2O)cc1Cc1ccc(CCCC(=O)NC(C)(CO)CO)cc1` [Compound 2, (1S)-1,5-anhydro-1-[2-hydroxy-5-[4-[4-[[2-hydroxy-1-(hydroxymethyl)-1-methylethyl]amino]-4-oxobutyl]benzyl]-4-methylphenyl]-D-glucitol] are 18 nM, 32 nM and 51.6%.
As for `Cc1cc(O)c([C@@H]2O[C@H](CO)[C@@H](O)[C@H](O)[C@H]2O)cc1Cc1ccc(CCNC(=O)NC2CN3CCC2CC3)cc1` (stereo partly shown) [Compound 34], the IC50 amounted to 10 nM against human SGLT2 and 49 nM against human SGLT1.
As to `Cc1cc(O)c(C2OC(CO)C(O)C(O)C2O)cc1Cc1ccc(CCNC(=O)NC2CC3CCC2C3)cc1` (mixture of isomers) [Compound 124], the “SGLT2 % inhibition at 100 nM” value on human SGLT2 (setting [2]) is reported as 79%. For the same molecule, the “SGLT1 % inhibition at 100 nM” value on human SGLT1 (setting [2]) was determined as 71%.
Regarding `O=C(NCCc1ccc(Cc2cc([C@@H]3O[C@H](CO)[C@@H](O)[C@H](O)[C@H]3O)ccc2Cl)cc1)NC(CO)(CO)CO` [Compound 17, (1S)-1,5-anhydro-1-[4-chloro-3-[4-[2-[[[2-hydroxy-1,1-bis(hydroxymethyl)ethyl]aminocarbonyl]amino]ethyl]benzyl]phenyl]-D-glucitol], the results for the IC50 at human SGLT2 and on human SGLT1 were 25 nM and 79 nM, respectively.
In the same order, the values of `CCCN(CC1CC1)C(=O)NCCc1ccc(Cc2cc([C@@H]3O[C@H](CO)[C@@H](O)[C@H](O)[C@H]3O)c(O)cc2C)cc1` [Compound 25] are 20 nM and 64 nM.
`COC(=O)[C@H](Cc1ccccc1)NC(=O)NCCc1ccc(Cc2cc([C@@H]3O[C@H](CO)[C@@H](O)[C@H](O)[C@H]3O)c(O)cc2C)cc1` [Compound 22]: the values for the IC50 against human SGLT2 and against human SGLT1 were 12 nM and 37 nM, respectively.
